Reference: the NIST ThermoML archive (doi:10.1016/j.jct.2010.06.008)
± gives the expanded uncertainty stated by the source.

Test: xn = mol fraction of the nth substance listed
Settings: 101 kPa, Liquid; for speed of sound: Sing-around technique in a fixed-path interferometer; for mass density: Vibrating tube method

CC(C)(C)Cl [2-chloro-2-methylpropane] + CCCCCCC
Settings	mass density, 283.15 K [kg/m3]	mass density, 298.15 K [kg/m3]	mass density, 313.15 K [kg/m3]	speed of sound, 283.15 K [m/s]	speed of sound, 298.15 K [m/s]	speed of sound, 313.15 K [m/s]
x2 = 0	855.249 ± 0.24	837.096 ± 0.24	818.536 ± 0.24	1046.9 ± 2.3	983.25 ± 2.3	919.41 ± 2.3
x2 = 0.0519	843.365 ± 0.24	825.671 ± 0.24	807.559 ± 0.24	1053 ± 2.3	989.06 ± 2.3	925.62 ± 2.3
x2 = 0.1021	832.352 ± 0.24	815.034 ± 0.24	797.321 ± 0.24	1059 ± 2.3	995.16 ± 2.3	931.82 ± 2.3
x2 = 0.2015	811.803 ± 0.24	795.208 ± 0.24	778.248 ± 0.24	1071.6 ± 2.3	1007.9 ± 2.3	944.63 ± 2.3
x2 = 0.3006	792.846 ± 0.24	776.886 ± 0.24	760.618 ± 0.24	1085.1 ± 2.3	1021.5 ± 2.3	957.98 ± 2.3
x2 = 0.3997	775.339 ± 0.24	759.908 ± 0.24	744.157 ± 0.25	1099.1 ± 2.3	1035.7 ± 2.3	972.04 ± 2.3
x2 = 0.5027	758.514 ± 0.24	743.587 ± 0.25	728.394 ± 0.25	1114.5 ± 2.3	1051.1 ± 2.3	987.29 ± 2.3
x2 = 0.6011	743.606 ± 0.25	729.156 ± 0.25	714.479 ± 0.25	1129.7 ± 2.3	1066 ± 2.3	1002.2 ± 2.3
x2 = 0.7014	729.346 ± 0.25	715.392 ± 0.25	701.195 ± 0.25	1145.5 ± 2.3	1081.5 ± 2.3	1017.8 ± 2.3
x2 = 0.8007	716.295 ± 0.25	702.832 ± 0.25	689.124 ± 0.25	1161.5 ± 2.3	1097.1 ± 2.3	1033.3 ± 2.3
x2 = 0.8966	704.437 ± 0.25	691.409 ± 0.25	678.136 ± 0.25	1177.4 ± 2.3	1113.2 ± 2.3	1049.5 ± 2.3
x2 = 0.9518	697.935 ± 0.25	685.122 ± 0.25	672.064 ± 0.25	1187 ± 2.3	1122.5 ± 2.3	1058.7 ± 2.3
